Assay results published in publication PMC3878228 (BMC Plant Biology, 2013).
“Also recorded” adds a separate entry of the source.

Tests used:
[1] = 200 μL medium with five pre-germinated Arabidopsis (Ler) seedlings; details: 22°C
[2] = test system: primary roots / root meristems (RMs) of Ler seedlings; test: In vitro root assay in Ler seedlings; format: in vivo, Arabidopsis; details: for Concentration at which the peptide was active in the root assay (primary root length): Ler seedlings, 8-d inoculation, tested at 10 nM, 30 nM, 100 nM, 1 μM
Experimental: (§1) Similarly, in vitro root assays were performed in Ler and clv2-1 (in Ler background) seedlings.
To evaluate activities of above-mentioned synthetic peptides with various N-terminal extensions, we performed in vitro root assays using Ler seedlings. The lengths of primary roots were measured after 8-d inoculations with either CLV3p12, L-CLV3p13, EEL-CLV3p15, HEEL-CLV3p16 or LHEEL-CLV3p17 at concentrations of 10 nM, 30 nM, 100 nM, or 1 μM (Figure 4).
(§2) Seeds of clv1-1, clv2-1 and clv3-2 (all in Ler background), Col-0 and Ler were gas-sterilized as reported previously, and imbibed in sterilized distilled water at 4°C in dark for 2 days before plating. In vitro root and SAM assays were performed as described.

[3] = test system: shoot apical meristems (SAMs) of clv3-2 seedlings; test: In vitro SAM assay in clv3-2 seedlings; format: in vivo, Arabidopsis; details: for Sizes of SAMs of clv3-2 seedlings after treatment: 1 μM fusion protein, 8 days, 8-d-old clv3-2 seedlings, n = 8, P < 0.01 Student's t-test
Experimental: (§3) In vitro activity assays of the TH-ProCLV3 fusion protein in SAMs were performed using clv3-2 and clv1-1 (both in Ler background) mutants of Arabidopsis, as described previously.
as §2

[4] = test system: CLV1; details: tobacco BY-2 cells; cited from earlier work
Excerpt: (§4) CLV3 is one of the well-studied peptide hormones in plants. The CLV3 gene encodes a 96-AA secretory protein that functions in a feedback regulation loop to restrict the number of stem cells in SAMs by repressing the expression of the WUSCHEL (WUS) transcription factor [16, 21]. […] CLV3 sh ...

[5] = test system: shoot and root meristems (RMs); details: synthetic peptides corresponding to the CLE motif; cited from earlier work
Excerpt: as §4

[6] = 200 μL liquid medium with five pre-germinated Ler seedlings (half-strength Murashige and Skoog, 1% sucrose, MES); details: Arabidopsis thaliana (Ler), 22°C, up to 48 hrs
[7] = test system: roots / root meristems (RMs) of clv2-1 seedlings; test: In vitro root assay in clv2-1 seedlings; format: in vivo, Arabidopsis; details: 1 μM TH-ProCLV3, 8-d-old clv2-1 seedlings, n = 8
Experimental: as §1, §2

[8] = test system: WUS expression; test: qRT-PCR of WUS expression in shoot apices of clv3-2 seedlings; format: in vivo, Arabidopsis; details: 8-d-old clv3-2 seedlings, 1 μM fusion protein in liquid medium, normalised to EIF4A1, 3 independent biological repeats
Experimental: To address if these fusion proteins are able to repress the WUS expression in SAMs, qRT-PCR analyses were performed with cDNAs from shoot apices after treatments with various fusion proteins. […] In contrast, the expression level of WUS in the TH-ProCLV3Leu69Ala-treated clv3-2 seedlings was only about 50% of the untreated ones (Figure 5F).
Total RNA was extracted using a Plant Total RNA Isolation Kit (TIANGEN, Beijing, China) from approximately 30 shoot apices excised from 8-d-old seedlings cultured in fusion protein-containing liquid media, and then reverse transcribed to cDNA with the First Strand cDNA Synthesis Kit ReverTra Ace-α (TOYOBO, Japan). qRT–PCR was performed in a Rotor-Gene 3000 thermocycler (Corbett, Australia) with the SYBR Premix ExTaq II kit (TaKaRa, Dalian, China), and the relative expression levels of the WUS [GenBank: NM_127349.3] were normalized against the internal control EIF4A1 [GenBank: NM_001084679.1] and calculated using the Rotor-Gene 6 software v 6.0 (Corbett, Australia) according to the 2^-∆∆CT method. Primer pairs of 5’-[…]-3’ and 5’-[…] -3’, and 5’-TTCTCTGCGACAATGCCTC-3’ and 5’-GCTTCCAGTCTTCTTTC TCCAC-3’ were used to amplify WUS and EIF4A1, respectively.

[9] = test system: shoot apical meristems (SAMs) of clv1-1 seedlings; test: In vitro SAM assay in clv1-1 seedlings; format: in vivo, Arabidopsis; details: 1 μM fusion protein, 8-d-old clv1-1 seedlings, n = 8
Experimental: as §3
The commonly known subtilase recognition site is Lys/Arg-Arg. Although in most CLE members of Arabidopsis the residue located before the conserved Arg of the 12-AA CLE motif is Lys (Additional file 3), for CLV3 the residue is Leu. We examined if a Leu69Lys substitution hampered the activity of the fusion protein. TH-ProCLV3Leu69Lys was produced in E. coli and applied to clv3-2 seedlings in vitro.
as §2

EELRTVPSGPDPLHH
cleaved bond ([1]; up to 3 d): H-H81

EELRTVPSGPDPLHH [EEL-CLV3p15, CLV3p12 with additional 3 N-terminal residues]
Concentration at which the peptide was active in the root assay (primary root length) ([2]; n = 8): 100 nM

FNESMRLSPGGPDPRHH
cleaved bond ([1]; up to 3 d): Met-Arg, 3 d
fragment found ([1]; up to 3 d): FNESMRLSPGGPDPRH; also recorded: FNESMRLSPGGPDPR; also recorded: FNESMRLSPGGPDP; also recorded: SMRLSPGGPDPR; also recorded: RLSPGGPDPR; also recorded: LSPGGPDPRHH; also recorded: SPGGPDPRHH; also recorded: SPGGPDPR

HEELRTVPSGPDPLHH
cleaved bond ([1]; up to 3 d): Arg70-Thr71

LHEEARTVPSGPDPLHH
cleaved bond ([1]; up to 3 d): H-H81

LHEELRTVPSGPDPLHH
cleaved bond ([1]; up to 3 d): Leu69-Arg70, 3 d; also recorded: Arg70-Thr71, 3 d; also recorded: H-H81, first_seen, 2 d

LHEELRTVPSGPDPLHH [LHEEL-CLV3p17, CLV3p12 with additional 5 N-terminal residues]
Concentration at which the peptide was active in the root assay (primary root length) ([2]; n = 8): 10 nM

LRTVPSGPDPLHH
cleaved bond ([1]; up to 3 d): L69-R70; also recorded: R70-T71; also recorded: H-H81

MRLSPGGPDPRHH [M-CLE1p13, synthesized CLE1 peptide with 1 N-terminal flanking residue]
Fold less active than CLE1p12 in restricting the sizes of SAMs ([3]; clv3-2 seedlings, 8-d incubation, 10 nM to 10 μM peptide, n = 16): about 100 fold

RLSPGGPDPRHH
fragment found ([1]; up to 3 d): RLSPGGPDPRH; also recorded: RLSPGGPDPR; also recorded: LSPGGPDPRHH; also recorded: SPGGPDPRHH; also recorded: SPGGPDPR

RTVPSGPDPLHH
cleaved bond ([1]; up to 3 d): R70-T71; also recorded: H-H81

RTVPSGPDPLHH [CLV3p12, chemically synthesized 12-AA CLV3 peptide corresponding to the CLE motif]
Interaction with CLV1 [4]: Direct interaction
Function in promoting stem cell differentiation in vitro [5]: functional in promoting stem cell differentiation in both shoot and root meristems
Concentration at which the peptide was active in the root assay (primary root length) ([2]; n = 8): 10 nM

Trx-His-HAHVQGLSNRKMMMMKMESEWVGANGEAEKAKTKGLGLHEELRTVPSGPDPLHHHVNPPRQPRNNFQLP
cleaved bond ([1]; up to 48 hrs): K38-Met39, major

Trx-His-HAHVQGLSNRKMMMMMKMESEWVGANGEAEKAKTKGLGLHEEARTVPSGPDPLHHHVNPPRQPRNNFQLP
fragment found [6]: CLV3p12 (RTVPSGPDPLHH); also recorded: CLV3p13 (RTVPSGPDPLHHH)

Trx-His-HAHVQGLSNRKMMMMMKMESEWVGANGEAEKAKTKGLGLHEEKRTVPSGPDPLHHHVNPPRQPRNNFQLP
fragment found [6]: MMMMKMESEWVGANGEAEKAKTKGLGLHEEK

Trx-His-HAHVQGLSNRKMMMMMKMESEWVGANGEAEKAKTKGLGLHEELRTVPSGPDPLHHHVNPPRQPRNNFQLP
fragment found [6]: RTVPSGPDPLHH (CLV3p12); also recorded: RTVPSGPDPLHHH (CLV3p13)

B1: TH-ProCLV3: CLV3 proprotein without signal peptide, N-terminal Trx and His tags, produced in E. coli, 23.8 kD (protein, UniProt Q9XF04 22-96, looked up)
pro-form: SDLTQAHAHVQGLSNRKMMMMKMESEWVGANGEAEKAKTKGLGLHEELRTVPSGPDPLHHHVNPPRQPRNNFQLP
modifications: pro-form N-terminal thioredoxin and His tags
notes: CLV3 proprotein without signal peptide, N-terminal Trx and His tags, produced in E. coli, 23.8 kD
Root growth of clv2-1 seedlings [7]: no evident growth inhibition
Root growth of Ler seedlings ([2]; 1 μM TH-ProCLV3, 8-d-old Ler seedlings, n = 8): inhibited greatly
Root meristem (RM) state in Ler, microscopic examination ([2]; 1 μM TH-ProCLV3, Ler seedlings): termination of RMs in Ler
Expression level of WUS in shoot apices relative to non-treated clv3-2 seedlings [8]: about 10%
Sizes of SAMs of clv1-1 seedlings after treatment [9]: no evident reduction; also recorded: no significant differences
Sizes of SAMs of clv3-2 seedlings after treatment [3]: significant reduced sizes of SAMs

B2: TH-ProCLV3Leu69Ala: TH-ProCLV3 fusion protein with Leu69Ala substitution, produced in E. coli (protein, UniProt Q9XF04 22-96, looked up, variant L69A)
pro-form: SDLTQAHAHVQGLSNRKMMMMKMESEWVGANGEAEKAKTKGLGLHEEARTVPSGPDPLHHHVNPPRQPRNNFQLP
modifications: pro-form N-terminal thioredoxin and His tags
notes: TH-ProCLV3 fusion protein with Leu69Ala substitution, produced in E. coli
Expression level of WUS in shoot apices relative to non-treated clv3-2 seedlings [8]: about 50%
Sizes of SAMs of clv1-1 seedlings after treatment [9]: no significant differences
Sizes of SAMs of clv3-2 seedlings after treatment [3]: significantly larger than those treated with TH-ProCLV3

B3: TH-ProCLV3Leu69Lys: TH-ProCLV3 fusion protein with Leu69Lys substitution, produced in E. coli (protein, UniProt Q9XF04 22-96, looked up, variant L69K)
pro-form: SDLTQAHAHVQGLSNRKMMMMKMESEWVGANGEAEKAKTKGLGLHEEKRTVPSGPDPLHHHVNPPRQPRNNFQLP
modifications: pro-form N-terminal thioredoxin and His tags
notes: TH-ProCLV3 fusion protein with Leu69Lys substitution, produced in E. coli
Sizes of SAMs of clv1-1 seedlings after treatment [9]: no significant differences
Sizes of SAMs of clv3-2 seedlings after treatment [3]: no significant difference
